Experimental findings from BindingDB's records for doi:10.1021/jm801583j (Bristol-Myers Squibb, 2009) are described below.

This test addresses T1, Androgen receptor (Homo sapiens, UniProt P10275).
T1 sequence (P10275 whole entry): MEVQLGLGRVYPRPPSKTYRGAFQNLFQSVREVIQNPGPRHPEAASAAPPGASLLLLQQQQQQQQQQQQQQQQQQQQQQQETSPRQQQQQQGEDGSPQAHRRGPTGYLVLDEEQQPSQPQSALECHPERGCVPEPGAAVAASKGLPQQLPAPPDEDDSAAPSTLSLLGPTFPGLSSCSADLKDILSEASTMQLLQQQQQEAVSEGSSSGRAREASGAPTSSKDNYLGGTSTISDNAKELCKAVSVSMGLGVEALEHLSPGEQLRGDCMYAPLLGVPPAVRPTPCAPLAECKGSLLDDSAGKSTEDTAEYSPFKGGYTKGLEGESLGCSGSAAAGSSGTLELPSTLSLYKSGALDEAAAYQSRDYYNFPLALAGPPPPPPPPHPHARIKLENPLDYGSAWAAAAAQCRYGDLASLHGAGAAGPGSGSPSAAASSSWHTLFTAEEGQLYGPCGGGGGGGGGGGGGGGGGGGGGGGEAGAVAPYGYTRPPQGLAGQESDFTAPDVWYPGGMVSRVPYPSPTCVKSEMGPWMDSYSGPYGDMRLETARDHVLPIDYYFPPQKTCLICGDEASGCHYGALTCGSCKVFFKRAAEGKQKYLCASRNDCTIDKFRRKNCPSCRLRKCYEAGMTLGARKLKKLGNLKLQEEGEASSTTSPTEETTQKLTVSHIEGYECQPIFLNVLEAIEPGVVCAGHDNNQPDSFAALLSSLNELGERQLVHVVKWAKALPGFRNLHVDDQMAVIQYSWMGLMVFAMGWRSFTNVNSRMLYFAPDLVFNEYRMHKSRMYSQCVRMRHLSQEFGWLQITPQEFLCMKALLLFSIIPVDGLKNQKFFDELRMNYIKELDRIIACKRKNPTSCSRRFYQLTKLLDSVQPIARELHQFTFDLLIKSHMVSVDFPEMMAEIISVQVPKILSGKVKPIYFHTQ
Nature of the test: Receptor Binding Assay (Ki) and Transactivation Assay (EC50). The following applies: pH 7.6; 22 °C.

Procedure: Binding assays were conducted by incubating test compound at various concentrations with [3H]DHT with human cancer epithelial breast cell lines MDAMB-45. IC50 value was obtained from dose-response displacement curves. The inhibition constant (Ki) was calculated from IC50 value by the Cheng and Prusoff equation. EC50 value was obtained from functional transactivation assay, which was conducted to assess the potency and efficacy of agonist/antagonist in stably transfected mouse myoblast C2C12 cell line utilizing a luciferase reporter.

A word on the EC50: it is the concentration giving half of the maximal effect. One may read the Ki as a measure of affinity in units of concentration, obtained from inhibition or displacement. `Cc1c(/N=C2\O[C@H](C(C)C)[C@@H]3[C@H](O)CCN23)ccc(C#N)c1Cl` [oxazolidin-2-imine, 6g] came in with an EC50 of 3.7 nM and a Ki of 0.7 nM.

In the case of `Cc1c(N2/C(=N/C#N)N3CC[C@H](O)[C@H]3[C@@H]2C)ccc(C#N)c1Cl` [cyanoguanidine, 15], the EC50 was 1110 nM and the affinity, expressed as Ki, was 17 nM.
